According to patent US11680047B2, “Enhanced erythropoiesis and iron metabolism” (FibroGen, Inc., priority 2003, dated 2023):

Tested on: Ceruloplasmin
Test: Ceruloplasmin mRNA expression in mouse kidney (microarray)
Type: in vivo
Settings: single dose 100 mg/kg
Protocol: Compounds were generally administered orally by gavage or IV administration. Animals treated by oral gavage received a 4-10 ml/kg volume of either 0.5% carboxymethyl cellulose (CMC; Sigma-Aldrich, St. Louis Mo.) with or without 0.1% Polysorbate 80 (0 mg/kg/day) or varying doses of a compound of the present invention (e.g., a HIF prolyl hydroxylase inhibitor) in 0.5% CMC, with or without 0.1% Polysorbate 80, using various dosing regimens. Blood samples were collected at appropriate intervals during treatment from, e.g., tail vein (rats), or abdominal vein or cardiocentesis (mice or rats). Generally, animals were anesthetized with isoflurane and blood samples were collected into MICROTAINER serum separator tubes (Becton-Dickinson, Franklin Lakes N.J.). For measurement of serum components, the tubes were incubated at room temperature for 30 minutes, and then centrifuged at 8,000 rpm at 4° C. for 10 minutes. The serum fraction was then processed and analyzed for the presence of specific components, e.g., serum iron (assay performed by Quality Clinical Labs, Mountain View, Calif.). For determination of hematocrit, blood samples were collected into MICROTAINER EDTA-2K tubes (Becton-Dickinson); EDTA-blood was then drawn into 75 mm×1.1-1.2 mm I.D. capillary tubes (Chase Scientific Glass, Inc., Rockwood Tenn.) to approximately % length, one end of the tube was sealed with CRITOSEAL sealant (Sherwood Medical Company), and the tubes were centrifuged in a J-503M MICROHEMATOCRIT centrifuge (Jorgensen Laboratories, Inc., Loveland Colo.) at 12,000 rpm for 5 minutes. Hematocrit was read against a reader card. When indicated, complete blood count (CBC) analysis, including blood hemoglobin level, reticulocyte number, and hematocrit, was performed by Quality Clinical Labs (Mountain View, Calif.).
Swiss Webster male mice were treated as described above with a single dose of 0.5% CMC (Sigma-Aldrich) (0 mg/kg) or 100 mg/kg compound A. At 4, 8, 16, 24, 48, or 72 hours post-administration, animals were anesthetized, sacrificed, and tissue samples of kidney, liver, brain, lung, and heart were isolated and stored in RNALATER solution (Ambion) at −80° C. Alternatively, animals were treated to 4 consecutive daily doses of 0.5% CMC (0 mg/kg/day), 7.5 mg/ml compound A in 0.5% CMC (30 mg/kg/day), or 25 mg/ml compound A in 0.5% CMC (100 mg/kg/day). Four hours after administration of the final dose, animals were anesthetized, sacrificed, and approximately 150 mg of liver and each kidney were isolated and stored in RNALATER solution (Ambion) at −20° C.
RNA isolation was carried out using the following protocol. A section of each organ was diced, 875 μl of RLT buffer (RNEASY kit; Qiagen Inc., Valencia Calif.) was added, and the pieces were homogenized for about 20 seconds using a rotor-stator POLYTRON homogenizer (Kinematica, Inc., Cincinnati Ohio). The homogenate was micro-centrifuged for 3 minutes to pellet insoluble material, the supernatant was transferred to a new tube and RNA was isolated using an RNEASY kit (Qiagen) according to the manufacturer's instructions. The RNA was eluted into 80 μL of water and quantitated with RIBOGREEN reagent (Molecular Probes, Eugene Oreg.). The absorbance at 260 and 280 nm was measured to determine RNA purity and concentration.
Alternatively, tissue samples were diced and homogenized in TRIZOL reagent (Invitrogen Life Technologies, Carlsbad Calif.) using a rotor-stator POLYTRON homogenizer (Kinematica). Homogenates were brought to room temperature, 0.2 volumes chloroform was added, and samples were mixed vigorously. Mixtures were incubated at room temperature for several minutes and then were centrifuged at 12,000 g for 15 min at 4° C. The aqueous phase was collected and 0.5 volumes of isopropanol were added. Samples were mixed, incubated at room temperature for 10 minutes, and centrifuged for 10 min at 12,000 g at 4° C. […]

`O=C(O)CNC(=O)c1nc(Cl)c2ccccc2c1O` [Compound A, [(1-Chloro-4-hydroxy-isoquinoline-3-carbonyl)-amino]-acetic acid] was tested, and the “Ceruloplasmin (relative mRNA levels)” value (4 hours) was 1.16, the “Ceruloplasmin (relative mRNA levels)” value (8 hours) was 1.39 and the “Ceruloplasmin (relative mRNA levels)” value (16 hours) was 1.22. For the same molecule, the “Ceruloplasmin (relative mRNA levels)” value (24 hours) was 2.45, the “Ceruloplasmin (relative mRNA levels)” value (48 hours) was 1.44 and the “Ceruloplasmin (relative mRNA levels)” value (72 hours) was 2.10.
